The record followed here is patent publication US7186743B2, “Substituted pyrazolyl compounds for the treatment of inflammation” (Pharmacia Corporation, priority 2001, dated 2007).

Read-outs that look alike come from different tables or passages of the source.

One data set deals with T1, IKK2 (Homo sapiens, UniProt O14920).
T1 construct: made in house; host or cells: insect cells (baculovirus, pFastBac; SF9)
T1 sequence (O14920 1-756): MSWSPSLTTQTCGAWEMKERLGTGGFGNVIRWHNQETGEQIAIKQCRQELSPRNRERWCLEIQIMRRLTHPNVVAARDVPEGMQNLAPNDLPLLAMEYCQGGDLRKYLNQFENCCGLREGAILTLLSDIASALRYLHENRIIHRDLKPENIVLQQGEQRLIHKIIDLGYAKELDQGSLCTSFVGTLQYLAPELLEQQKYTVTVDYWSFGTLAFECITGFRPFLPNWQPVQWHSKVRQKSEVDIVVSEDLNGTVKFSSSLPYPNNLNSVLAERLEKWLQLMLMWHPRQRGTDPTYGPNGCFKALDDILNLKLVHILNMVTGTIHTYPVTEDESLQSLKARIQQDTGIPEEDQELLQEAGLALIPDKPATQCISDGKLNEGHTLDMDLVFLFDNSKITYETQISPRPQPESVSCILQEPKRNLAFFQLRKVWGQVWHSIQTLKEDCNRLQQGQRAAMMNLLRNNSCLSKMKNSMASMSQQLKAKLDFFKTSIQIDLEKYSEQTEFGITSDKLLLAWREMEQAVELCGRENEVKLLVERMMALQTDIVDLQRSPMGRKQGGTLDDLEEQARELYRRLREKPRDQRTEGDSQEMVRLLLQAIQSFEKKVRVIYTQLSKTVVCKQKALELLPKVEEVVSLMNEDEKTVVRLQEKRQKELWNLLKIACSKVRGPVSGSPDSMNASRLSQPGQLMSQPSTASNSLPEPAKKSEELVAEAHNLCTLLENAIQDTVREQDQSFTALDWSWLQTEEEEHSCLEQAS
Description: IKKβ Resin Enzyme Assay (IKK2 resin). The class given is biochemical. An outline of the steps: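 Radiometric test: [γ-33P]ATP incorporation into a biotinylated IκBα peptide, 30 min at 25° C, pH 7.6 Hepes with MgCl2/MnCl2 and 1 μM cold ATP. Reaction is quenched with Dowex resin and the supernatant is counted. Kinase is FLAG-purified homodimeric recombinant human IKK2 from insect cells.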

Where [1] appears, read: Table 7, read-out: IKK2 Resin IC50.
Setting [2] is: Table 5, read-out: IKK2 Resin Avg. IC50.

On to `CN1CCN(c2cc(C(=O)Nc3ccc4c(c3)-c3c(c(C(N)=O)nn3-c3ccc(F)cc3)CC4)ccn2)CC1` [Example 251, 1-(4-fluorophenyl)-8-{[2-(4-methylpiperazin-1-yl)isonicotinoyl]amino}-4,5-dihydro-1H-benzo[g]indazole-3-carboxamide], for which the melting point was in the range of 277 to 279 °C. Moreover, on IKK2 (setting [1]), the IC50 was at most 1000 nM.

With `Cc1cc(Cl)ncc1C(=O)Nc1ccc2c(c1)-c1c(c(C(N)=O)nn1-c1ccc(F)cc1)CC2` [Example 246, 8-{[(6-chloro-4-methylpyridin-3-yl)carbonyl]amino}-1-(4-fluorophenyl)-4,5-dihydro-1H-benzo[g]indazole-3-carboxamide], the melting point was 280 to 284 °C. In addition, the IC50 on IKK2 (setting [1]) was at most 1000 nM.

The compound `NC(=O)c1nn(-c2ccc(F)cc2)c2c1CCc1ccc(NC(=O)c3cc(N4CCOCC4)ncc3Cl)cc1-2` [Example 249, 8-[(5-chloro-2-morpholin-4-ylisonicotinoyl)amino]-1-(4-fluorophenyl)-4,5-dihydro-1H-benzo[g]indazole-3-carboxamide] returned a melting point of 309 to 313 °C. The half-maximal inhibitory concentration (IC50) on IKK2 (setting [1]) was at most 1000 nM.

With `Cc1cc(N2CCOCC2)ncc1C(=O)Nc1ccc2c(c1)-c1c(c(C(N)=O)nn1-c1ccc(F)cc1)CC2` [Example 247, 1-(4-fluorophenyl)-8-{[(4-methyl-6-morpholin-4-ylpyridin-3-yl)carbonyl]amino}-4,5-dihydro-1H-benzo[g]indazole-3-carboxamide], the melting point was 301 °C (dec.). In addition, the IC50 on IKK2 (setting [1]) is at most 1000 nM.

`NC(=O)c1nn(-c2ccc3c(c2)OCO3)c2c1CCc1ccc(NC(=O)c3nc(N4CCOCC4)ccc3Cl)cc1-2` [Example 219, 1-(1,3-benzodioxol-5-yl)-8-{[(3-chloro-6-morpholin-4-ylpyridin-2-yl)carbonyl]amino}-4,5-dihydro-1H-benzo[g]indazole-3-carboxamide]: the melting point is 260 to 262 °C (dec.). The half-inhibitory concentration (IC50) at IKK2 (setting [2]) is at most 1000 nM.

`NC(=O)c1nn(-c2ccc3c(c2)OCO3)c2c1CCc1ccc(NC(=O)c3cccnc3NCCO)cc1-2` [Example 208, 1-(1,3-benzodioxol-5-yl)-8-[({2-[(2-hydroxyethyl)amino]pyridin-3-yl}carbonyl)amino]-4,5-dihydro-1H-benzo[g]indazole-3-carboxamide]: the melting point lay within 250 to 253 °C. Also, the IC50 on IKK2 (setting [2]) is at most 1000 nM.

A word on the melting point: it is the temperature of the solid-liquid transition. The term IC50 denotes the concentration at which inhibition is half-maximal.
